Test system: NIH3T3 cells
Experiment: MTS formazan dye reduction cytotoxicity/cell viability assay
Procedure: Standard cytotoxicity/cell viability assays were performed using the CellTiter-96 Aqueous one solution MTS cell proliferation assay (Promega Inc) and using the standard conditions detailed in the manufacturer's instructions.
In addition, we also wanted to ensure that the observations made using the LUCIA were not due to any effects on luciferase expression or on the luciferase assay itself. For this reason, we looked at the effect of adding wortmannin and LY294002 to NIH3T3 cells containing the already integrated R229-Luc provirus.

| SMILES | cellular cytotoxicity (percentage of viable cells remaining after drug treatment) (mouse) | cellular cytotoxicity (percentage of viable cells remaining after drug treatment) (MTS assay, concentrations used in LUCIA, FIG. 4C) |
| --- | --- | --- |
| O=c1cc(N2CCOCC2)oc2c(-c3ccccc3)cccc12 [LY294002] | slight cytotoxic effect at high concentrations |  |
| COC[C@H]1OC(=O)c2coc3c2[C@@]1(C)C1=C(C3=O)[C@@H]2CCC(=O)[C@@]2(C)C[C@H]1OC(C)=O [wortmannin] |  | slight cytotoxic effect at high concentrations |

Source: US20040014701A1, “Inhibiting retrotransposon and retroviral integration by targeting the atm pathway” (priority 2003, published 2004)
